Like-named read-outs stand apart in the source and are kept apart here.
Experiments:
MDA-MB231 = assay: SRB antiproliferative assay, MDA-MB231; format: cell-based, human; details: Homo sapiens, MDA-MB-231, 48 h
Protocol: (§1) Antiproliferative effects were determined by a sulforhodamine B (SRB) based protocol. For a typical screening experiment, 5,000-10,000 cells were inoculated into 100 μl medium per well of a 96-well microtiter plate as described previously. […] Some of the sample wells were fixed with 25 μl of 50% trichloroacetic acid (TCA) as a control of the cell population for each cell line at the time of drug addition (Tz). An aliquot of the frozen stock was thawed and diluted to the desired final maximum test-concentration with complete medium. Two to ten-fold serial dilutions were made to provide a total of seven drug concentrations (and a control [C]). Following addition of drugs, the culture plate was incubated for additional 48 h. Cells were fixed in situ by slowly adding 25 μl of ice-cold 50% (w/v) TCA (final concentration, 10% TCA), and were then incubated for 60 min at 4° C. The supernatant was discarded, and the plate was washed five times with tap water, followed by air-dry. 50 μl of SRB solution at 0.4% (w/v) in 1% acetic acid was added to each well, and the plate was incubated for >30 min at room temperature. Unbound SRB was removed by five washes with tap water, followed by air-drying. […] The relative growth rate (%) was calculated for each of the compound concentrations according to the following formula: (Ti−Tz)/(C−Tz)×100 In the formula, time zero (Tz), control growth (C), and OD for different concentration of tested compounds (Ti). The GI50 for each compound was obtained from a non-linear Sigmoidal dose-response (variable slope) curve which is fitted by GraphPad Prism™ v.4.03 software. Values were calculated for each of these parameters if the level of activity was reached. However, if the effect was not reached or was exceeded, the value for that parameter was expressed as greater or less than the maximum or minimum concentration tested. Flow Cytometry

MDA-MB468 = assay: SRB antiproliferative assay, MDA-MB468; format: cell-based, human; details: Homo sapiens, MDA-MB-468, 48 h
Protocol: as §1

MCF7 = assay: SRB antiproliferative assay, MCF7; format: cell-based, human; details: Homo sapiens, MCF7; SRB, 48 h; read-out: GI50 MCF7
Protocol: as §1

184B5 = assay: SRB antiproliferative assay, 184B5 non-cancer breast cells; format: cell-based, human; details: Homo sapiens, read-out: GI50 184B5
Protocol: as §1

Compound: COC(=O)c1sccc1S(=O)(=O)NCCCNc1ccnc2cc(C(F)(F)F)ccc12 [Compound 31, N-(3-(7-Trifluoromethyl-quinolin-4-ylamino)propyl)thiophene-3-sulfonamide-2-carbomethoxy ester]
- GI50 (MDA-MB231): 7.48 ± 0.63 µM
- GI50 (MDA-MB468): 4.55 ± 0.25 µM
- GI50 (MCF7): 4.33 ± 0.23 µM
- GI50 (184B5; 184B5, SRB, 48 h): 12.1 ± 0.45 µM
- melting point: 137 to 139 °C

Compound: O=[N+]([O-])c1ccc(S(=O)(=O)N2CCN(c3ccnc4cc(C(F)(F)F)ccc34)CC2)c([N+](=O)[O-])c1 [Compound 12, 4-[4-(2,4-Dinitro-benzenesulfonyl)-piperazin-1-yl]-7-trifluoromethyl-quinoline]
- GI50 (MDA-MB231): 24.3 ± 0.63 µM
- GI50 (MDA-MB468): 19.2 ± 0.61 µM
- GI50 (MCF7): 10.8 ± 0.12 µM
- GI50 (184B5; 184B5, 48 h): 37.78 ± 0.35 µM
- melting point: 178 to 180 °C

Compound: CN(C)c1cccc2c(S(=O)(=O)N3CCN(c4ccnc5cc(C(F)(F)F)ccc45)CC3)cccc12 [Compound 13, Dimethyl-{5-[4-(7-trifluoromethyl-quinolin-4-yl)-piperazine-1-sulfonyl]-naphthalen-1-yl}-amine]
- GI50 (MDA-MB231): 22 ± 0.59 µM
- GI50 (MDA-MB468): 19 ± 0.55 µM
- GI50 (MCF7): 12.8 ± 0.21 µM
- GI50 (184B5; 184B5, SRB, 48 h): 12 ± 0.15 µM
- melting point: 98 to 100 °C

Compound: O=S(=O)(NCCCNc1ccnc2cc(C(F)(F)F)ccc12)c1ccc(-c2ccccc2)cc1 [Compound 29, Biphenyl-4-sulfonic acid [3-(7-trifluoromethyl-quinolin-4-ylamino)-propyl]-amide]
- GI50 (MDA-MB231): 6.03 ± 0.38 µM
- GI50 (MDA-MB468): 4.19 ± 0.23 µM
- GI50 (MCF7): 3.6 ± 0.27 µM
- GI50 (184B5; 184B5, SRB, 48 h): 2.82 ± 0.05 µM
- melting point: 110 to 112 °C

Compound: O=S(=O)(c1ccc(Cl)cc1)N1CCN(c2ccnc3cc(C(F)(F)F)ccc23)CC1 [Compound 7, 4-[4-(4-Chloro-benzenesulfonyl)-piperazin-1-yl]-7-trifluoromethyl-quinoline]
- GI50 (MDA-MB231): 41.4 ± 0.83 µM
- GI50 (MDA-MB468): 34.9 ± 0.78 µM
- GI50 (MCF7): 27.36 ± 0.27 µM
- melting point: 144 to 146 °C

Compound: O=S(=O)(c1ccc(Cl)cc1Cl)N1CCN(c2ccnc3cc(Cl)ccc23)CC1 [Compound 5, 7-Chloro-4-(4-(2,4-dichlorophenylsulfonyl)piperazin-1-yl)quinoline]
- GI50 (MDA-MB231): 40.6 ± 0.81 µM
- GI50 (MDA-MB468): 21.6 ± 0.61 µM
- GI50 (MCF7): 13.5 ± 0.23 µM
- GI50 (184B5; 184B5, SRB, 48 h): 12.4 ± 0.15 µM
- melting point: 145 to 147 °C

Compound: O=[N+]([O-])c1cccc(S(=O)(=O)NCCCNc2ccnc3cc(Cl)ccc23)c1 [Compound 18, N-(3-(7-Chloroquinolin-4-ylamino)propyl)-3-nitrobenzenesulfonamide]
- GI50 (MDA-MB231): 20.4 ± 1.15 µM
- GI50 (MDA-MB468): 9.21 ± 0.65 µM
- GI50 (MCF7): 8.62 ± 0.38 µM
- GI50 (184B5; 184B5, SRB, 48 h): 15.8 ± 0.88 µM

Compound: O=[N+]([O-])c1ccc(S(=O)(=O)NCCCNc2ccnc3cc(Cl)ccc23)c([N+](=O)[O-])c1 [Compound 17, N-[3-(7-Chloro-quinolin-4-ylamino)-propyl]-2,4-dinitro-benzenesulfonamide]
- GI50 (MDA-MB231): 8.85 ± 0.71 µM
- GI50 (MDA-MB468): 7.35 ± 0.23 µM
- GI50 (MCF7): 6.16 ± 0.32 µM
- GI50 (184B5; 184B5, 48 h): 9.09 ± 0.56 µM
- melting point: 238 to 240 °C

Compound: COC(=O)c1sccc1S(=O)(=O)N1CCN(c2ccnc3cc(C(F)(F)F)ccc23)CC1 [Compound 14, 3-[4-(7-Trifluoromethyl-quinolin-4-yl)-piperazine-1-sulfonyl]-thiophene-2-carboxylic acid methyl ester]
- GI50 (MDA-MB231): 34.7 ± 0.71 µM
- GI50 (MDA-MB468): 23.9 ± 0.64 µM
- GI50 (MCF7): 16 ± 0.24 µM
- GI50 (184B5; 184B5, SRB, 48 h): 15.88 ± 0.14 µM
- melting point: 117 to 119 °C

Compound: Cc1ccc(S(=O)(=O)NCCCNc2ccnc3cc(Cl)ccc23)cc1 [Compound 16, N-[3-(7-Chloro-quinolin-4-ylamino)-propyl]-4-methyl-benzenesulfonamide]
- GI50 (MDA-MB231): 6.16 ± 0.51 µM
- GI50 (MDA-MB468): 5.77 ± 0.41 µM
- GI50 (MCF7): 5.25 ± 0.45 µM
- GI50 (184B5; 184B5, SRB, 48 h): 9.56 ± 0.53 µM

Compound: O=[N+]([O-])c1ccc(S(=O)(=O)NCCCNc2ccnc3cc(C(F)(F)F)ccc23)c([N+](=O)[O-])c1 [Compound 25, 2,4-Dinitro-N-[3-(7-trifluoromethyl-quinolin-4-ylamino)-propyl]-benzenesulfonamide]
- GI50 (MDA-MB231): 8.91 ± 0.77 µM
- GI50 (MDA-MB468): 8.46 ± 0.41 µM
- GI50 (MCF7): 5.56 ± 0.34 µM
- GI50 (184B5; 184B5, 48 h): 15.9 ± 0.89 µM
- melting point: 198 to 200 °C

Compound: O=S(=O)(NCCCNc1ccnc2cc(C(F)(F)F)ccc12)c1ccc(Cl)cc1 [Compound 27, 4-Chloro-N-[3-(7-trifluoromethyl-quinolin-4-ylamino)-propyl]-benzenesulfonamide]
- GI50 (MDA-MB231): 12.8 ± 0.88 µM
- GI50 (MDA-MB468): 10.3 ± 0.56 µM
- GI50 (MCF7): 5.44 ± 0.34 µM
- GI50 (184B5; 184B5, SRB, 48 h): 7.63 ± 0.43 µM
- melting point: 70 to 72 °C

Compound: O=S(=O)(NCCCNc1ccnc2cc(C(F)(F)F)ccc12)c1ccc(Cl)cc1Cl [Compound 30, 2,4-Dichloro-N-[3-(7-trifluoromethyl-quinolin-4-ylamino)-propyl]-benzenesulfonamide]
- GI50 (MDA-MB231): 6.97 ± 0.54 µM
- GI50 (MDA-MB468): 3.94 ± 0.12 µM
- GI50 (MCF7): 5.18 ± 0.29 µM
- GI50 (184B5; 184B5, SRB, 48 h): 3.22 ± 0.08 µM
- melting point: 117 to 119 °C

Compound: O=S(=O)(NCCCNc1ccnc2cc(Cl)ccc12)c1ccc(Cl)cc1 [Compound 19, 4-Chloro-N-(3-(7-chloroquinolin-4-ylamino)propyl)benzenesulfonamide]
- GI50 (MDA-MB231): 11.8 ± 0.91 µM
- GI50 (MDA-MB468): 8.34 ± 0.73 µM
- GI50 (MCF7): 4.31 ± 0.32 µM
- GI50 (184B5; 184B5, SRB, 48 h): 6.36 ± 0.34 µM

Compound: O=S(=O)(c1ccc(Cl)cc1Cl)N1CCN(c2ccnc3cc(C(F)(F)F)ccc23)CC1 [Compound 10, 4-[4-(2,4-Dichloro-benzenesulfonyl)-piperazin-1-yl]-7-trifluoromethyl-quinoline]
- GI50 (MDA-MB231): 20.3 ± 0.53 µM
- GI50 (MDA-MB468): 18.6 ± 0.55 µM
- GI50 (MCF7): 16.7 ± 0.19 µM
- GI50 (184B5; 184B5, SRB, 48 h): 20.4 ± 0.23 µM
- melting point: 137 to 139 °C

Compound: CN(C)c1cccc2c(S(=O)(=O)NCCCNc3ccnc4cc(C(F)(F)F)ccc34)cccc12 [Compound 28, 5-Dimethylamino-naphthalene-1-sulfonic acid [3-(7-trifluoromethyl-quinolin-4-ylamino)-propyl]-amide]
- GI50 (MDA-MB231): 14.2 ± 0.98 µM
- GI50 (MDA-MB468): 9.71 ± 0.33 µM
- GI50 (MCF7): 7.73 ± 0.61 µM
- GI50 (184B5; 184B5, SRB, 48 h): 3.73 ± 0.21 µM
- melting point: 199 to 201 °C

Compound: CN(C)c1cccc2c(S(=O)(=O)N3CCN(c4ccnc5cc(Cl)ccc45)CC3)cccc12 [Compound 4, 5-(4-(7-Chloroquinolin-4-yl)piperazin-1-ylsulfonyl)-N,N-dimethylnaphthalen-1-amine]
- GI50 (MDA-MB231): 35 ± 0.76 µM
- GI50 (MDA-MB468): 27.5 ± 0.66 µM
- GI50 (184B5; 184B5, SRB, 48 h): 28.25 ± 0.26 µM
- melting point: 145 to 147 °C

Compound: O=S(=O)(c1ccc(-c2ccccc2)cc1)N1CCN(c2ccnc3cc(Cl)ccc23)CC1 [Compound 3, 7-Chloro-4-(4-(biphenylsulfonyl)piperazin-1-yl)quinoline]
- GI50 (MDA-MB231): 26.2 ± 0.62 µM
- GI50 (MDA-MB468): 18.2 ± 0.54 µM
- GI50 (MCF7): 9.23 ± 0.21 µM
- GI50 (184B5; 184B5, SRB, 48 h): 16.4 ± 0.23 µM
- melting point: 238 to 240 °C

Compound: O=S(=O)(NCCCNc1ccnc2cc(Cl)ccc12)c1ccc(-c2ccccc2)cc1 [Compound 20, Biphenyl-4-sulfonic acid [3-(7-chloro-quinolin-4-ylamino)-propyl]-amide]
- GI50 (MDA-MB231): 4.63 ± 0.42 µM
- GI50 (MDA-MB468): 4.46 ± 0.37 µM
- GI50 (MCF7): 2.47 ± 0.23 µM
- GI50 (184B5; 184B5, SRB, 48 h): 2.41 ± 0.09 µM
- melting point: 116 to 118 °C

Compound: CS(=O)(=O)NCCCNc1ccnc2cc(C(F)(F)F)ccc12 [Compound 23, N-[3-(7-Trifluoromethyl-quinolin-4-ylamino)-propyl]-methanesulfonamide]
- GI50 (MDA-MB231): 55.9 ± 1.56 µM
- GI50 (MDA-MB468): 30.4 ± 0.99 µM
- GI50 (MCF7): 25.3 ± 1.23 µM
- GI50 (184B5; 184B5, SRB, 48 h): 59.5 ± 1.56 µM
- melting point: 171 to 173 °C

Compound: O=S(=O)(NCCCNc1ccnc2cc(Cl)ccc12)c1ccc(Cl)cc1Cl [Compound 21, 2,4-Dichloro-N-[3-(7-chloro-quinolin-4-ylamino)-propyl]-benzenesulfonamide]
- GI50 (MDA-MB231): 6.76 ± 0.55 µM
- GI50 (MDA-MB468): 3.61 ± 0.12 µM
- GI50 (MCF7): 4.04 ± 0.22 µM
- GI50 (184B5; 184B5, SRB, 48 h): 3.55 ± 0.21 µM
- melting point: 145 to 147 °C

Compound: CS(=O)(=O)N1CCN(c2ccnc3cc(C(F)(F)F)ccc23)CC1 [Compound 11, 4-(4-Methanesulfonyl-piperazin-1-yl)-7-trifluoromethyl-quinoline]
- GI50 (MDA-MB231): 44.4 ± 0.85 µM
- GI50 (MDA-MB468): 28.6 ± 0.69 µM
- GI50 (MCF7): 25.6 ± 0.26 µM
- GI50 (184B5; 184B5, SRB, 48 h): 93.93 ± 0.89 µM
- melting point: 116 to 118 °C

Compound: CS(=O)(=O)NCCCNc1ccnc2cc(Cl)ccc12 [Compound 15, N-[3-(7-Chloro-quinolin-4-ylamino)-propyl]-methanesulfonamide]
- GI50 (MDA-MB231): 40.9 ± 1.52 µM
- GI50 (MDA-MB468): 28.6 ± 1.03 µM
- GI50 (MCF7): 23.1 ± 0.87 µM
- GI50 (184B5; 184B5, SRB, 48 h): 23.3 ± 0.92 µM

Compound: Cc1ccc(S(=O)(=O)N2CCN(c3ccnc4cc(C(F)(F)F)ccc34)CC2)cc1 [Compound 8, 4-[4-(Toluene-4-sulfonyl)-piperazin-1-yl]-7-trifluoromethyl-quinoline]
- GI50 (MDA-MB231): 42.7 ± 0.83 µM
- GI50 (MDA-MB468): 36.5 ± 0.75 µM
- GI50 (MCF7): 20.8 ± 0.23 µM
- GI50 (184B5; 184B5, SRB, 48 h): 13 ± 0.14 µM
- melting point: 126 to 128 °C

— patent publication US9975852B2, “Quinoline sulfonyl derivatives and uses thereof” (Health Sciences North Research Institute, priority 2013, dated 2018)
